Legend:
intracellular Tat = target: T1, intracellular Tat (Human immunodeficiency virus type 1 group M subtype B, UniProt P69697); assay: Steady state of recombinant Tat in HeLa-CD4-LTR-Luc cells (Western blot); format: cell-based, HIV-1; details: 6 hours with compound, MG132 10 μM
T1 construct: pTatC6H-1 (NIH AIDS Reagent Program) plasmid encoding C-terminal 6xHistidine Tat1-86 (HXB3, subtype B); made in house; host or cells: E. coli BL21 (plasmid pTatC6H-1, NIH AIDS Reagent Program)
Experimental: FIG 5 dCA stabilizes Tat structure. (A) Trp fluorescence assays. (Left) Schematic of the assay. (Center) DMSO, dCA (7.5× Tat concentration) or raltegravir (Ralt.; 7.5× Tat concentration) was incubated with Tat. The fluorescence of the Trp^11 of Tat protein was measured at the indicated wavelengths. Acrylamide (250 mM) was used as a quenching control of Tat fluorescence. (Right) Peak absorbance (λmax) versus increasing fold ratios of compounds to Tat protein. Data are representative of n = 3 independent experiments. (B) DARTS assays. Tat was incubated with DMSO or dCA, at increasing concentrations, in the presence of increasing concentrations of proteinase K (PK). […] Data are representative of n = 2 independent experiments. (C) Steady state of Tat in the presence of dCA in vivo. HeLa-CD4-LTR-Luc cells were incubated with recombinant Tat and then washed and incubated with the indicated compounds for 6 hours. […] (Left) Western blot representative of n = 4 independent experiments. MG132 was used as a positive control of Tat protection from degradation, and raltegravir was used as a negative control. (Right) Densitometry of the Tat band normalized to the actin band. Results represent the mean ± SEM from n = 4 independent experiments. Statistical significance was determined using one-way ANOVA with post hoc Tukey’s test. ns, not significant; ***, P < 0.0001; **, P < 0.001.
Next, we determined the half-life of recombinant Tat in HeLa-CD4-LTR-Luc cells in the presence of dCA (Fig. 5C). We incubated recombinant Tat with cells for 4 hours, and after several washes to remove extracellular Tat protein, we incubated cells with DMSO, dCA, or raltegravir for an additional 6 hours. Western blotting with anti-His antibody was performed to reveal intracellular Tat. […]
Half-life of Tat in vivo. […] Total protein concentration was assessed by Bradford assay and Tat protein in each condition determined by western blot with an anti-His antibody at 1:1500 dilution (Thermofisher). […]

[1] = tested on: export function of HIV Rev; assay: Viral mRNA export in NL4-3-infected CEM-SS cells (qRT-PCR); format: cell-based, HIV-1; details: dCA 30 nM, 24 hours
Description: If dCA were to bind the basic domain of Tat in its disordered form, then one would predict it might also bind to other basic peptide sequences and block their functions. The two well-known proteins that share a similar basic domain with Tat are HIV-1 Rev protein and the cellular protein Hexim-1 (Fig. 3A). As such, we investigated whether dCA could inhibit these similar basic domain functions. The basic domain of Rev is responsible for its nuclear localization ([31]); therefore, we assessed whether dCA could impact the subcellular localization of Rev (Fig. 3B) as previously shown for Tat ([10]). We transfected HeLa-CD4-LTR-Luc cells with a plasmid expressing FLAG-tagged Rev and assessed Rev localization in the presence of 100 nM dCA. […] Twenty-four hours later, cells were collected, and total, nuclear, and cytoplasmic mRNAs were extracted, reverse transcribed, and quantified by quantitative real-time PCR (qRT-PCR).
Cells were infected with the NL4-3 strain for 24 hours. […] Total, nuclear, and cytoplasmic mRNAs were extracted, and viral messages were measured by qRT-PCR. […] Statistical significance was determined using one-way ANOVA with post hoc Tukey’s test, comparing the DMSO condition to the other conditions. ***, P < 0.0001; **, P < 0.001; *, P < 0.01. […] Seventy hours later, viability was measured. […]

T1 sequence (P69697 whole entry): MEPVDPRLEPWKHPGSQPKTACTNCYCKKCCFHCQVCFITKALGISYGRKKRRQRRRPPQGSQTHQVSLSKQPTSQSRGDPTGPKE

`CN(C)C1CC23CCC4(O2)C(=CCC2(C)C(c5ccc6ccncc6c5)=CCC24)C=C3C(O)C1O` (stereo not drawn) [dCA, didehydro-cortistatin A] was tested, and the “percentage of remaining Tat” value (intracellular Tat) was 40% and the “export function of HIV Rev in CEM-SS cells” value [1] was “does not perturb the export function of HIV Rev in CEM-SS cells”.
For `Cc1nnc(C(=O)NC(C)(C)c2nc(C(=O)NCc3ccc(F)cc3)c(O)c(=O)n2C)o1` [raltegravir, reference compound], the “percentage of remaining Tat” value (intracellular Tat) was 28%.

Source: publication PMC6368365, “Didehydro-Cortistatin A Inhibits HIV-1 by Specifically Binding to the Unstructured Basic Region of Tat” (mBio, 2019)
